Results reported in ChEMBL document CHEMBL6109048, “Innovative design and potential applications of covalent strategy in drug discovery” (Eur J Med Chem, 2025).
Values belong to the compound of their own block, whether it stands above or below them.

What was measured:
[1] = target: Epidermal growth factor receptor (Homo sapiens, UniProt P00533); experiment: Inhibition of EGFR (unknown origin) by ADP-Glo kinase assay
[2] = target: Tyrosine-protein kinase ABL1 (Homo sapiens, UniProt P00519); experiment: Inhibition of 6His/SUMO- tagged human ABL1 (229 to 500 residues) extracted from Escherichia coli BL21 (DE3)
Chain of Tyrosine-protein kinase ABL1 (P00519 whole entry, the tested form may be a part): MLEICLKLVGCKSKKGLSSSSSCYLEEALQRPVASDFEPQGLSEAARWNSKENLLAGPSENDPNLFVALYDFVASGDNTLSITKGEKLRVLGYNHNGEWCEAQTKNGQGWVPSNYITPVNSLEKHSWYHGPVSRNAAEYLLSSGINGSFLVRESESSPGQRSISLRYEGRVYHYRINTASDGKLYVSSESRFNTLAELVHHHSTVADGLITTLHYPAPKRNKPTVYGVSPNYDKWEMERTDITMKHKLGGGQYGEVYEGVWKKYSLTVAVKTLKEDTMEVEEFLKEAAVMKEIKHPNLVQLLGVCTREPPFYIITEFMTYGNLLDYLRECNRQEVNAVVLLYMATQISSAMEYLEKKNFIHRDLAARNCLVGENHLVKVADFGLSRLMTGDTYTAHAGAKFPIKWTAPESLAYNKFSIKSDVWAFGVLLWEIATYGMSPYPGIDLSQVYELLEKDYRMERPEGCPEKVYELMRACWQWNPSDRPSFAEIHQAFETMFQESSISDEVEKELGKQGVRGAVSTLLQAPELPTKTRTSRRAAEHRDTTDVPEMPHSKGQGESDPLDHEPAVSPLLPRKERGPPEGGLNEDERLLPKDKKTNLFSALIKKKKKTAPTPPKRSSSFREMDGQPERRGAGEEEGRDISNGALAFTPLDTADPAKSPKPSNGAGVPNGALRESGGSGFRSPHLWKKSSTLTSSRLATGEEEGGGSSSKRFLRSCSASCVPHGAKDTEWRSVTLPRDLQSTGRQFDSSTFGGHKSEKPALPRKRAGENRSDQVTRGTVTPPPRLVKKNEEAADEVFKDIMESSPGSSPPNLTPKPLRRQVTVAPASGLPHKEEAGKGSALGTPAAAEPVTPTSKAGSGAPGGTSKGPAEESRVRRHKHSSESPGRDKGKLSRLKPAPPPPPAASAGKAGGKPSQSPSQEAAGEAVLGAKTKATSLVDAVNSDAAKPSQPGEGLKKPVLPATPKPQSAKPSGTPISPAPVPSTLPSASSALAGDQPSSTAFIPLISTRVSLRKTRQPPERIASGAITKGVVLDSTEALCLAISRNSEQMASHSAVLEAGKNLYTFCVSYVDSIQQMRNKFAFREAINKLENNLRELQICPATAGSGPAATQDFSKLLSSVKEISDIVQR

[3] = target: T1, Cathepsin G (Homo sapiens, UniProt P08311); experiment: Inhibition of human Cathepsin G
T1 sequence (P08311 whole entry): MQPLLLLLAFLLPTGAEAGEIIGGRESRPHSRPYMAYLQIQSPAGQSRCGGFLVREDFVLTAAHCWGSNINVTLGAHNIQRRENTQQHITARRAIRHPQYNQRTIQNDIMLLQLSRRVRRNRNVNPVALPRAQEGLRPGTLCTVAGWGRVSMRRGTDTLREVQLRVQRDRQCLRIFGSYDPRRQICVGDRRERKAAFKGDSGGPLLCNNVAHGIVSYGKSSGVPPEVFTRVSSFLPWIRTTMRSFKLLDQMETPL

[4] = target: SRSF protein kinase 1 (Homo sapiens, UniProt Q96SB4); experiment: Inhibition of SRPK1 (unknown origin)
Chain of SRSF protein kinase 1 (Q96SB4 whole entry): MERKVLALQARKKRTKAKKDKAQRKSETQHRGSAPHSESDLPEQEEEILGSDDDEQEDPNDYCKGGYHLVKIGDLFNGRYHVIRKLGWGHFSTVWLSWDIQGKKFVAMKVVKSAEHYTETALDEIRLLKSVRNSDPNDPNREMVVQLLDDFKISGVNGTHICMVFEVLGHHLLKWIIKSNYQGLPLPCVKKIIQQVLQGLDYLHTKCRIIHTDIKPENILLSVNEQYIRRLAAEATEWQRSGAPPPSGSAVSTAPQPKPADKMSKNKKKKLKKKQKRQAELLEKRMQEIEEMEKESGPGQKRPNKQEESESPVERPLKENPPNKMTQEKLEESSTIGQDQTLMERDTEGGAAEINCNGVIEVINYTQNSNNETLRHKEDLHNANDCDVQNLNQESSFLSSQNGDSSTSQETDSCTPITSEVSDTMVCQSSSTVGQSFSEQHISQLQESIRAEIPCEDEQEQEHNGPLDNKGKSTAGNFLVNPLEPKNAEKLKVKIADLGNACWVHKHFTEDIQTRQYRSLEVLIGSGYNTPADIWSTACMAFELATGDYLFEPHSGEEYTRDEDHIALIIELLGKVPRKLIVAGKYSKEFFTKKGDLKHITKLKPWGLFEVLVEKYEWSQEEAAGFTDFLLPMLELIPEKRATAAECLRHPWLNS

[5] = target: Mast/stem cell growth factor receptor Kit (Homo sapiens, UniProt P10721); experiment: Inhibition of c-KIT (unknown origin)
Chain of Mast/stem cell growth factor receptor Kit (P10721 whole entry): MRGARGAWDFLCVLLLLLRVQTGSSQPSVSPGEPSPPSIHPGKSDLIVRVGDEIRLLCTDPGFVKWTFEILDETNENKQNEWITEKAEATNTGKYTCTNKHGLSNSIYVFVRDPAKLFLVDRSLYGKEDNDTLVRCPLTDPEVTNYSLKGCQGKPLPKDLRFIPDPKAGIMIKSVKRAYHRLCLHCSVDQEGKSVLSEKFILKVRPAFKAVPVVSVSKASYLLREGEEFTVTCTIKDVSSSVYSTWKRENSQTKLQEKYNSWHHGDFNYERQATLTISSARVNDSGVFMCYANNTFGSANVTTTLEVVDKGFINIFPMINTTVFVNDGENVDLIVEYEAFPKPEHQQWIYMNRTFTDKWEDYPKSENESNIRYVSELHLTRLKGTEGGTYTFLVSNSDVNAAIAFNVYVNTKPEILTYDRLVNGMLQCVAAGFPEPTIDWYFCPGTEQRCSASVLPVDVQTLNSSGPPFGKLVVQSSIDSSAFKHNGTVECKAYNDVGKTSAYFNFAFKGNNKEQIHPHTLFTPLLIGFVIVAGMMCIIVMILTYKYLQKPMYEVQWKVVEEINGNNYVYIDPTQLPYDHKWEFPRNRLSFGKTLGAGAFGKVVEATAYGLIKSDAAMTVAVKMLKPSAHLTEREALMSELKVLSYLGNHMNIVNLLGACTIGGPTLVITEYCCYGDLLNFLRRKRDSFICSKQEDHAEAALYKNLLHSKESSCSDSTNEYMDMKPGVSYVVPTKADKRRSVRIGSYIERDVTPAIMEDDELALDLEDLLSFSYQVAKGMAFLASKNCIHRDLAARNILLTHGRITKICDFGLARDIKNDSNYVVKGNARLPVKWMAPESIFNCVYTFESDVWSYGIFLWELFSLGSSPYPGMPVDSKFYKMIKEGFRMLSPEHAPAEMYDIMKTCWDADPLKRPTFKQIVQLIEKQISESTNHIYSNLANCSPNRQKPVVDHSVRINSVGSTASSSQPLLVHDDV

[6] = target: T2, Neutrophil elastase (Homo sapiens, UniProt P08246); experiment: Inhibition of human neutrophil elastase
T2 sequence (P08246 whole entry): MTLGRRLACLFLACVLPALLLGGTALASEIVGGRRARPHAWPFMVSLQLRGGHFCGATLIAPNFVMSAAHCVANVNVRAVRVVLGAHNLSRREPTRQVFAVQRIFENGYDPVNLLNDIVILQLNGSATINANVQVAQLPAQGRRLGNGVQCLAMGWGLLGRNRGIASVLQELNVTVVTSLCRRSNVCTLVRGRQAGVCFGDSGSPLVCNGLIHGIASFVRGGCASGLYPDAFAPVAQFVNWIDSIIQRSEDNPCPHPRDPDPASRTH

[7] = target: T3, Tyrosine-protein kinase JAK3 (Homo sapiens, UniProt P52333); experiment: Inhibition of JAK3 (unknown origin)
T3 sequence (P52333 whole entry): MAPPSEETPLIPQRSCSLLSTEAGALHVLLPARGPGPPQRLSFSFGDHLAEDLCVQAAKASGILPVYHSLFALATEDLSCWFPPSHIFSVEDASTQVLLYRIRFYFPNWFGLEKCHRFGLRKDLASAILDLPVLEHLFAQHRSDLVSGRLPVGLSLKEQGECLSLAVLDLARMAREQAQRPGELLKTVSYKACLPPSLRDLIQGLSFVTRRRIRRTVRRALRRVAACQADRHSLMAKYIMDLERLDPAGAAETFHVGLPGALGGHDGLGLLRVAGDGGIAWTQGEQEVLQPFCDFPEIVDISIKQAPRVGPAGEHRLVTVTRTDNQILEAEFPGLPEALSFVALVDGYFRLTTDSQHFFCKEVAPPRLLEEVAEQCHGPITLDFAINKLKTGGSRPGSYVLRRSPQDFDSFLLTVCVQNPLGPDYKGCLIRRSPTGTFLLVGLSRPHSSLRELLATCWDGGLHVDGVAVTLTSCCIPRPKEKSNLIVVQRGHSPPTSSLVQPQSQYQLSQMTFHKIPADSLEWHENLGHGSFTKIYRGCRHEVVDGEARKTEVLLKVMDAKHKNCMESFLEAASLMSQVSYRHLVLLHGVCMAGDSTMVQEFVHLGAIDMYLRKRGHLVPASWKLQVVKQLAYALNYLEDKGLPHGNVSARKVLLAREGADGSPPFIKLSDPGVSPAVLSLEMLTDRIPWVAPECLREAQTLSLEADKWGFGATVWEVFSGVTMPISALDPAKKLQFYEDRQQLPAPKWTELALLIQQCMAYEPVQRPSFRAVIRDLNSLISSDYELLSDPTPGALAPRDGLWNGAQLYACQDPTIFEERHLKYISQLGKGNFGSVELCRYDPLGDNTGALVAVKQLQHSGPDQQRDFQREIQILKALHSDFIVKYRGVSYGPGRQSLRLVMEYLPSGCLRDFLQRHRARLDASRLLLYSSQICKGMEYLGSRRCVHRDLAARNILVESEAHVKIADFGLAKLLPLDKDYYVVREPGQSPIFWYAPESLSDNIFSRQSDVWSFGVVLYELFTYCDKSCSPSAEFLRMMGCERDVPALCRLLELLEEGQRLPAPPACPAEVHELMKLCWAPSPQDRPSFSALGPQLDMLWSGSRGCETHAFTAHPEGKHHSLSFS

[8] = target: Cyclin-dependent kinase 3 (Homo sapiens, UniProt Q00526); experiment: Inhibition of recombinant CDK3 (unknown origin)
Chain of Cyclin-dependent kinase 3 (Q00526 whole entry): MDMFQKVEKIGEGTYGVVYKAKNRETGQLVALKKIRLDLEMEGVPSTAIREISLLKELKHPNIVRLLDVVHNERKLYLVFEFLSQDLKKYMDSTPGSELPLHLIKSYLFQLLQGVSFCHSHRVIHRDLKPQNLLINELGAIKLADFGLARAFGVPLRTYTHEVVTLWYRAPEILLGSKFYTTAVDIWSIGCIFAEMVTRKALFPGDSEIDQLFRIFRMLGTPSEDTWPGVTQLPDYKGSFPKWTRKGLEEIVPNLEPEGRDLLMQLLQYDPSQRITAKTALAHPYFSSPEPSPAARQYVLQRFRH

Chain of Epidermal growth factor receptor (P00533 whole entry, the tested form may be a part): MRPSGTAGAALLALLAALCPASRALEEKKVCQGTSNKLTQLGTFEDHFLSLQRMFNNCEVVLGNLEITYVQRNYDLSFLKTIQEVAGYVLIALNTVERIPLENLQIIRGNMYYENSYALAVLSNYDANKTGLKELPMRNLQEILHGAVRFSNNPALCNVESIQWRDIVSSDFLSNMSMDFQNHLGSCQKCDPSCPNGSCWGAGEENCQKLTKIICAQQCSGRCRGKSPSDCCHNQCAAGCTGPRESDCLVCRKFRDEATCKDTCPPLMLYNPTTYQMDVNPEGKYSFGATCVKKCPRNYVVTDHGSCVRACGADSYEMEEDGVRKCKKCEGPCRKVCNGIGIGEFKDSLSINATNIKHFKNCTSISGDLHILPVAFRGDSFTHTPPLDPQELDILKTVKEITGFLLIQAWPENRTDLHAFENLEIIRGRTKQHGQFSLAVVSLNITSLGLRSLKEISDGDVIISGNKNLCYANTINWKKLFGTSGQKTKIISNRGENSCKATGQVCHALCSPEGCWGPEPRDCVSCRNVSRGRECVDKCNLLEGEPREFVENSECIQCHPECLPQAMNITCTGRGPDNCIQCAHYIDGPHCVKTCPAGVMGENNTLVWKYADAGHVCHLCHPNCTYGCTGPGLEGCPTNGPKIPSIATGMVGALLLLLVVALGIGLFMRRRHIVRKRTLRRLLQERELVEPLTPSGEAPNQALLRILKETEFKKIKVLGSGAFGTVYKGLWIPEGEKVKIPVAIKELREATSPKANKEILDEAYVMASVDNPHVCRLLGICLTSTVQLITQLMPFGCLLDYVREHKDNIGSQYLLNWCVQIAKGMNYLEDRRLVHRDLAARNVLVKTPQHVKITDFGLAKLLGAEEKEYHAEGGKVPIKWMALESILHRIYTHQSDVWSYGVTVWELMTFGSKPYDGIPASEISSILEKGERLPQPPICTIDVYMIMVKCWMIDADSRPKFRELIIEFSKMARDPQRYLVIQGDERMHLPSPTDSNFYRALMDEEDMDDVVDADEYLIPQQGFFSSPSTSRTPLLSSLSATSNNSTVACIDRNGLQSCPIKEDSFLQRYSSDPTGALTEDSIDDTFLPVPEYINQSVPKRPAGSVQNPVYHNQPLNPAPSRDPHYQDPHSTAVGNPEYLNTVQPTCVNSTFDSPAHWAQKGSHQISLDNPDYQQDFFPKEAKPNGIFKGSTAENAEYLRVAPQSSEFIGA

Compound: C#Cc1cc(Nc2ncnc3cc(OCCOC)c(OCCOC)cc23)ccc1C=O
IC50 [1]: 48.2 nM

Compound: C#Cc1cc(OC)c(-c2ccc3nc(NC(=O)NCCO)sc3c2)cc1C=O
IC50 [2]: 2.4 nM

Compound: O=S(=O)(F)Oc1ccccc1S(=O)(=O)F
IC50 [3]: > 200 nM

Compound: O=S(=O)(F)c1ccccc1S(=O)(=O)F
IC50 [6]: 3.3 µM | IC50 [3]: 190 nM

Compound: CN(C)C/C=C/C(=O)Nc1ccc(C(=O)N2CCCC(Nc3ncc(Cl)c(-c4c[nH]c5ccccc45)n3)C2)cc1 (centres undefined)
IC50 [8]: 69 nM

Other lines, results leading:

IC50 [4]: 1.15 nM
Compound: CCc1cc2c(cc1-c1cc[nH]n1)C(C)(C)C1Cc3cc(C#N)ccc3C1C2=O (centres undefined)

IC50 [5]: 2080 nM
Compound: CC#CC1=Nc2cc(NC(=O)Cc3ncc(Oc4ccnc5cc(OC)ccc45)cc3OC)ccc2C(C)(C)O1

IC50 [7]: 60 nM
Compound: CC#CC1Nc2cc(Nc3nccc(C4CN(C)c5ccccc54)n3)ccc2C(C)(C)O1 (centres undefined)
